Reference: US8168651B2, “Protein kinase modulators” (Cylene Pharmaceuticals, Inc., priority 2008, dated 2012)
Where two headings read alike, the source gives them in different places.

Tests used:
recombinant human PIM1 = recombinant human PIM1 (Homo sapiens (Human), UniProt P11309); assay: PIM-1 kinase activity in cell-free in vitro assay; type: biochemical; conditions: for inhibition at 0.5 µM: 500 nM compound, read-out: PIM-1: % inh 500 nM
recombinant human CK2 = recombinant human CK2 (Homo sapiens (Human), UniProt P68400); assay: CK2 assay (cell-free, 33P-ATP filter plate); type: biochemical; conditions: 500 nM compound, read-out: CK2: % inh 500 nM
[1] = system: HCT-116 human colorectal carcinoma cells; assay: Cell-proliferation assay using Alamar Blue dye; type: cell-based; conditions: Homo sapiens;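 note: cells exposed to compound for about 4 days, then Alamar Blue added and dye fluorescence read after about 4 h, compared with medium-only control wells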
K-562 = assay: Cell proliferation modulatory activity, K-562; type: cell-based; conditions: Homo sapiens, K562; K-562 cells
MV-4-11 = assay: Cell proliferation modulatory activity, MV-4-11; type: cell-based; conditions: Homo sapiens, MV4-11; MV-4-11 cells
[2] = HCT-116, HCT-116, second column, read-out: HCT-116 (uM), cell proliferation modulatory activity
[3] = HCT-116, second HCT-116 column (c8), read-out: HCT-116 (uM) cell proliferation modulatory activity

Chain of recombinant human PIM1 (P11309 whole entry): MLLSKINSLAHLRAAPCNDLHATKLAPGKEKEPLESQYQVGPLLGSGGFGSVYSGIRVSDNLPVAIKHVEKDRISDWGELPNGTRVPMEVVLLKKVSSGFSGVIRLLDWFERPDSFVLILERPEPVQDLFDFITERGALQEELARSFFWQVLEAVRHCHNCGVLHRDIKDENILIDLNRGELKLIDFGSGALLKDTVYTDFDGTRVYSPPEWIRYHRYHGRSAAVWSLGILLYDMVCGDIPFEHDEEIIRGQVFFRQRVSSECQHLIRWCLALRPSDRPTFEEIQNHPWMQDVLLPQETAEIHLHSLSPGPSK
Chain of recombinant human CK2 (P68400 whole entry): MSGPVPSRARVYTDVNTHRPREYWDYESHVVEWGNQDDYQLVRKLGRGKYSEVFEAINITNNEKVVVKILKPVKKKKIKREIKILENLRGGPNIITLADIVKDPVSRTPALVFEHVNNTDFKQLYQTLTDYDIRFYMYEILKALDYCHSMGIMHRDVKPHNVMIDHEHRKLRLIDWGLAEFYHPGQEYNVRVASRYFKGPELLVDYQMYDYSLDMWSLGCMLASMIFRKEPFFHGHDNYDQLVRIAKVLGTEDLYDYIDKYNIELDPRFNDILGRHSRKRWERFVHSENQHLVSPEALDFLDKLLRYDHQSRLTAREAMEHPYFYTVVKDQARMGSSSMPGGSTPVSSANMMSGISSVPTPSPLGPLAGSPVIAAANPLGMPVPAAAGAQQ
Chain of recombinant human CK2 (P67870 whole entry partner): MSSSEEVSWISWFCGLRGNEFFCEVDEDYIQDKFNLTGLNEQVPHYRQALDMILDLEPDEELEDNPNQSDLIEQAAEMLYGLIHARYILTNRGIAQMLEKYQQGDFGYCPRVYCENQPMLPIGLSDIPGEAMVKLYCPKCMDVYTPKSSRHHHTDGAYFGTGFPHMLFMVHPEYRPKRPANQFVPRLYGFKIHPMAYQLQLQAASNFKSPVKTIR

| SMILES | inhibition at 0.5 µM (recombinant human PIM1; cell-free) [%] | inhibition at 0.5 µM (recombinant human CK2; cell-free) [%] | IC50 [1, 2] [µM] | inhibition at 0.5 µM (recombinant human PIM1; cell-free assay) [%] | IC50 [1, 3] [µM] | IC50 (K-562) [µM] | IC50 (MV-4-11) [µM] | IC50 (recombinant human PIM1; cell-free assay) [µM] | inhibition at 0.5 µM (recombinant human CK2; cell-free assay) [%] |
| --- | --- | --- | --- | --- | --- | --- | --- | --- | --- |
| COCCNC(=O)c1cccc(Nc2nc3cc(C(=O)O)ccc3c3sccc23)c1 | 12 | 65.2 | > 10 |  |  |  |  |  |  |
| CC(=O)N1CCN(C(=O)c2cccc(Nc3nc4cc(C(=O)O)ccc4c4sccc34)c2)CC1 | 20.8 | 36.5 | > 10 |  |  |  |  |  |  |
| O=C(Cc1cccc(Nc2nc3cc(C(=O)O)ccc3c3sccc23)c1)NC1CC1 | 19.1 | 51.2 | > 10 |  |  |  |  |  |  |
| COC(=O)c1ccc2c(c1)nc(Nc1cccc(CC(=O)O)c1)c1ccsc12 | 8.94 | -6.27 | > 10 |  |  |  |  |  |  |
| CN(C)C(=O)Cc1cccc(Nc2nc3cc(C(=O)O)ccc3c3sccc23)c1 | 42.5 | 55.4 | > 10 |  |  |  |  |  |  |
| O=C(O)c1ccc2c(c1)nc(Nc1cccc(-c3ccccc3)c1)c1ccsc12 | 4.58 | 65.8 | > 10 |  |  |  |  |  |  |
| COC(=O)c1ccc2c(c1)nc(Nc1ccccc1)c1nc(SC)ncc12 | -26.7 | 6.43 | 9.56 |  |  |  |  |  |  |
| COC(=O)c1ccc2c(c1)nc(Nc1ccccc1)c1nc(S(C)(=O)=O)ncc12 | -27.8 | -44.2 | 0.967 |  |  |  |  |  |  |
| CSc1ncc2c(n1)c(Nc1ccccc1C)nc1cc(C(=O)O)ccc12 |  |  |  | 9.67 | > 10 | > 10 |  |  |  |
| COC(=O)c1ccc2c(c1)nc(N(C)c1ccccc1)c1nc(S(C)(=O)=O)ncc12 |  |  |  | 9.84 | 4.36 | 0.334 |  |  |  |
| CN(c1ccccc1)c1nc2cc(C(=O)O)ccc2c2cnc(NC3CC3)nc12 |  |  |  | 31.4 | > 10 | > 10 |  |  |  |
| Cc1ccccc1Nc1nc2cc(C(=O)O)ccc2c2cnc(NC3CC3)nc12 |  |  |  | 31.9 | 10 | 0.769 | 0.165 |  |  |
| CNC(=O)c1ccc2c(c1)nc(N(C)c1ccccc1)c1nc(NC3CC3)ncc12 |  |  |  | 12.6 | 9.74 | > 10 |  |  |  |
| CN(c1ccccc1)c1nc2cc(C(=O)NC3CC3)ccc2c2cnc(NC3CC3)nc12 |  |  |  | 16.1 | > 10 | > 10 |  |  |  |
| CN(C)C(=O)c1ccc2c(c1)nc(N(C)c1ccccc1)c1nc(NC3CC3)ncc12 |  |  |  | -0.201 | 5.19 | > 10 |  |  |  |
| CNC(=O)c1ccc2c(c1)nc(Nc1ccccc1C)c1nc(NC3CC3)ncc12 |  |  |  | 4.21 | 1.61 | > 10 |  |  |  |
| Cc1ccccc1Nc1nc2cc(C(=O)N(C)C)ccc2c2cnc(NC3CC3)nc12 |  |  |  | 0.71 | > 10 | > 10 |  |  |  |
| Cc1ccccc1Nc1nc2cc(C(=O)NC3CC3)ccc2c2cnc(NC3CC3)nc12 |  |  |  | 5.72 | > 10 | > 10 |  |  |  |
| O=C(O)c1ccc2c(c1)nc(N1CCc3c([nH]c4ccccc34)C1)c1ccncc12 |  |  |  | 38.8 | > 10 | > 10 |  |  |  |
| O=C(O)c1ccc2c(c1)nc(NCCn1ccnc1)c1ccncc12 |  |  |  | 51.8 | > 10 | > 10 |  | > 1.1 |  |
| Cc1nccn1CCNc1nc2cc(C(=O)O)ccc2c2cnccc12 |  |  |  | 97.1 | > 10 | > 10 | > 10 | 0.287 |  |
| O=C(O)c1ccc2c(c1)nc(NCC1CCN1Cc1ccccc1)c1ccncc12 (stereo not shown) |  |  |  | -7.8 | > 10 | > 10 |  |  | 55.9 |
| COC(=O)c1ccc2c(c1)nc(NN)c1ccncc12 |  |  |  | -32.4 | > 10 | > 10 |  |  | -8.65 |
| O=C(O)c1ccc2c(c1)nc(Nc1ccn[nH]1)c1ccncc12 |  |  |  | 1.37 | > 10 | > 10 |  |  | 94.8 |
| Cn1nc(C2CC2)cc1Nc1nc2cc(C(=O)O)ccc2c2cnccc12 |  |  |  | 45.8 | > 10 | > 10 |  |  | 96.2 |
| CONc1nc2cc(C(=O)O)ccc2c2cnccc12 |  |  |  | 34.9 | > 10 | > 10 |  |  | 94.7 |
| CON(C)c1nc2cc(C(=O)O)ccc2c2cnccc12 |  |  |  | 55.7 | > 10 | > 10 |  | 0.897 | 84.7 |

| SMILES | inhibition at 0.5 µM (recombinant human PIM1; cell-free) [%] | inhibition at 0.5 µM (recombinant human CK2; cell-free) [%] | IC50 [1, 2] [µM] | inhibition at 0.5 µM (recombinant human PIM1; cell-free assay) [%] | IC50 [1, 3] [µM] | IC50 (K-562) [µM] | IC50 (MV-4-11) [µM] | IC50 (recombinant human PIM1; cell-free assay) [µM] | inhibition at 0.5 µM (recombinant human CK2; cell-free assay) [%] |
| --- | --- | --- | --- | --- | --- | --- | --- | --- | --- |
| O=C(O)c1ccc2c(c1)nc(NN1CCCCC1)c1ccncc12 |  |  |  |  | > 10 | > 10 |  | > 1.1 |  |
| CN(c1ccccc1)c1nc2cc(C(=O)O)ccc2c2cnccc12 |  |  |  | 71.2 | > 10 | > 10 |  | 0.439 | 89 |
| Cc1cc(Nc2nc3cc(C(=O)O)ccc3c3cnccc23)c2ccccc2n1 |  |  |  | 24.9 | > 10 | > 10 |  |  | 96.6 |
| O=C(O)c1ccc2c(c1)nc(Nc1ccccc1Cl)c1ccncc12 |  |  |  | 70.7 | > 10 | > 10 |  | 0.372 | 97.3 |
| O=C(O)c1ccc2c(c1)nc(N1CCc3ccccc31)c1ccncc12 |  |  |  | 9.63 | > 10 | > 10 |  |  | 90.2 |
| O=C(O)c1ccc2c(c1)nc(Nc1ccccc1OC(F)(F)F)c1ccncc12 |  |  |  | 32.5 | > 10 | > 10 |  |  | 92 |
| O=C(O)c1ccc2c(c1)nc(Nc1cccc(Cl)c1)c1ncccc12 |  |  |  | 16.7 | > 10 | > 10 |  |  | 40 |
| O=C(O)c1ccc2c(c1)nc(Nc1ccc(F)c(Cl)c1)c1ncccc12 |  |  |  | -15.5 | > 10 | > 10 |  |  | 12.3 |
| O=C(O)c1ccc2c(c1)nc(Nc1ccccc1)c1ncccc12 |  |  |  |  | > 10 | > 10 |  |  |  |
| O=C(O)c1ccc2c(c1)nc(NCCNc1ccccc1)c1ccncc12 |  |  |  |  | > 10 | > 10 | 0.185 | 0.7 |  |
| CN(c1ccccc1)c1nc2cc(C(=O)O)ccc2c2cnc(N)nc12 |  |  |  |  | > 10 | > 10 | > 10 | 0.223 |  |
| COc1cc(Nc2nc3cc(C(=O)O)ccc3c3cnccc23)cc(OC)c1 |  |  |  | 72 | > 10 | > 10 | 6.94 | 0.152 | 99.4 |
| N#Cc1ccc2c(c1)nc(NCC(O)c1ccccc1)c1ccsc12 (stereo not shown) |  |  |  | 6.38 | > 10 | > 10 | > 10 |  | -9.58 |
| N#Cc1ccc2c(c1)nc(NCCn1cccc1)c1ccsc12 |  |  |  | -25.6 | > 10 | 6.07 | > 10 |  | -22.3 |
| CN1CCC(N(C)c2nc3cc(C#N)ccc3c3sccc23)C1 (stereo not shown) |  |  |  | -6.14 | 4.65 | > 10 | 7.87 |  | -14.1 |
| Cc1nccn1CCNc1nc2cc(C#N)ccc2c2sccc12 |  |  |  | 8.62 | > 10 | > 10 | > 10 |  | -15.7 |
| N#Cc1ccc2c(c1)nc(NCCn1ccnc1)c1ccsc12 |  |  |  | -0.12 | > 10 | > 10 | > 10 |  | -14.9 |
| CN(CCN1CCCC1)c1nc2cc(C#N)ccc2c2sccc12 |  |  |  | -3.97 | 1.41 | 3.04 | 1.84 |  | -20.3 |
| Cc1nccn1CCNc1nc2cc(-c3nnn[nH]3)ccc2c2sccc12 |  |  |  | 81.5 | > 10 | > 10 | > 10 | 0.119 | 62.1 |
| N#Cc1ccc2c(c1)nc(N1CCC(N3CCOCC3)CC1)c1ccsc12 |  |  |  | 0.408 | > 10 | > 10 | > 10 |  | -34.7 |
| CN1CCCC(Nc2nc3cc(C#N)ccc3c3sccc23)C1 (stereo not shown) |  |  |  | 20.8 | 1.42 | 5.06 | 3.23 |  | -17.5 |
| N#Cc1ccc2c(c1)nc(NCc1ccc(C(N)=O)cc1)c1ccsc12 |  |  |  | -23.8 | > 10 | > 10 | > 10 |  | -4.69 |
| CN(C)CCCNc1nc2cc(C#N)ccc2c2sccc12 |  |  |  | 23.8 | 3.37 | > 10 | 7.81 |  | -30.5 |
| CN(C)CCCN(C)c1nc2cc(C#N)ccc2c2sccc12 |  |  |  | 15.3 | 3.92 | 7.98 | 3.55 |  | -4.72 |
| CN(C)CCN(C)c1nc2cc(C#N)ccc2c2sccc12 |  |  |  | -3.15 | 0.511 | 1.87 | 1.07 |  | 64.1 |
| CC1(C)CC(Nc2nc3cc(C#N)ccc3c3sccc23)CC(C)(C)N1 |  |  |  | -1.38 | 6.75 | > 10 | 9.88 |  | -3.98 |
| CN(C)C1CCN(c2nc3cc(C#N)ccc3c3sccc23)CC1 |  |  |  | 20.3 | 6.57 | > 10 | 6.05 |  | -0.522 |
